Source: publication PMC9082971, “Nature-derived epoxy resins: Synthesis, allergenicity, and thermosetting properties of pinoresinol diglycidyl ether” (Toxicology and Industrial Health, 2022)
Like-named read-outs stand apart in the source and are kept apart here.

Columns and labels:
[1] = tested on: KeratinoSens reporter keratinocytes (luciferase gene under control of the ARE element of the AKR1C2 gene); assay: KeratinoSens ARE-Nrf2 luciferase assay; format: cell-based; settings: for ECKS1.5: extrapolated concentration for 1.5 fold luciferase induction; for ECKS4.5: extrapolated concentration for 4.5 fold luciferase induction; for Classification: KeratinoSens, luciferase induction greater than 1.5-fold at non-cytotoxic concentrations
Protocol: (§1) KeratinoSens Assay for Sensitization and Cellular Viability. The KeratinoSens™ assay was performed according to the OECD guidelines ([OECD, 2018]). Compounds were incubated at 12 concentrations (0.98–2000 μM) for 48 h with cinnamic aldehyde as the positive control. The experiment was repeated on three independent occasions.
In Vitro Skin Sensitization: KeratinoSens ARE-Nrf2 Luciferase Assay. […] ECKS1.5 represents the extrapolated concentration for which induction of luciferase activity is above the 1.5 fold threshold (i.e., 50% enhanced luciferase activity). The ECKS4.5 values were used for comparison of sensitizing potency.

model peptide AcPHCKRM = assay: Reactivity toward the model peptide AcPHCKRM (peptide depletion, HPLC/ESI-MS); settings: 10 mM compound, 1 mM AcPHCKRM
Protocol: All solvents were degassed with argon prior to use. […] Monoepoxides PGE, 1 or 2 were prepared in DMSO (40 mM, 100 μL) together with potassium phosphate buffer (100 mM, pH 7.4) (200 μL) and separately added to a vial purged with argon containing AcPHCKRM dissolved in DMSO (4 mM, 100 μL).
Based on our previous studies regarding the chemical reactivity of the epoxide-containing compounds ([O’Boyle et al., 2014]; [Ponting et al., 2019]), the depletion of the nucleophilic hexapeptide Ac-Pro-His-Cys-Lys-Arg-Met-OH (AcPHCKRM) was analyzed in reaction mixtures at pH 7.4 with a 10-fold excess of the respective test chemical in a mixture of phosphate buffer and DMSO.

[2] = Cellular viability (MTT) in the KeratinoSens assay; format: cell-based; settings: human, KeratinoSens reporter keratinocytes, 50% reduction in cellular viability, read-out: Cytotoxicity IC50
Protocol: as §1

[3] = design: method as in O’Boyle et al., 2014; settings: ref O’Boyle et al., 2014, cited from earlier work
[4] = tested on: KeratinoSens reporter keratinocytes (luciferase gene under control of the ARE element of the AKR1C2 gene); settings: cited from earlier work
[5] = tested on: KeratinoSens reporter keratinocytes; settings: read-out: Cytotoxicity IC50; 50% reduction in cellular viability, MTT assay; ref Delaine et al., 2011; cited from earlier work
CBA/Ca mice [6] = settings: cited from earlier work
mice and guinea pigs = settings: cited from earlier work
CBA/Ca mice [7] = assay: Murine local lymph node assay (LLNA); format: in vivo
Protocol: (§2) Experimental Animals. Female CBA/Ca mice, 7 or 9 weeks of age, were purchased from NOVA SCB Charles River, Germany. The mice were housed in HEPA filtered airflow cages and kept on standard laboratory diet and water ad lib. The regional ethics committee, Jordbruksverket, approved the protocol and the procedure was performed in accordance with the guidelines. Sensitization Potential of PinoDGE in Mice. […] Computational Techniques. Reactivity of cysteine residues toward the compounds under investigation was modeled as reactivity toward methanethiolate. Reactivity calculations were carried out at the B3LYP-D3/6–31+G**([Stephens et al., 1994]; [Becke, 1988]; [Slater, 1974]; [Goerigk and Grimme, 2011]; [Grimme et al., 2010]; [Ditchfield et al., 1971]) level of theory in Jaguar (Schrodinger LLC, N. Y. Jaguar, version 7.6, 2009). Further experimental details are contained in the supplementary information. Cross-Linking Procedure and Thermogravimetric Analysis (TGA).
(§3) In Vivo Skin Sensitizing Potency Studies. The LLNA was used to assess the skin sensitizing potency of PinoDGE. […] The standard vehicle, acetone: olive oil (AOO) (4:1), was initially used as the vehicle. […] Pure acetone is described as a suitable vehicle in the LLNA ([Jowsey et al., 2008]); however, a closer match to AOO was desired, leading to the choice of AOO 16:1.

[8] = Cross-linking with TETA and thermogravimetric analysis (TGA); format: physicochemical
Protocol: as §2
Cross-Linking of PinoDGE with TETA. […] Initial decomposition temperature (IDT) indicated the apparent thermal stability of the epoxy resin.

[9] = Solubility in the LLNA test vehicle; format: physicochemical
Excerpt: as §3

[10] = after 45 min, pH 7.4 phosphate buffer/DMSO
[11] = cross-linked with TETA, TGA under nitrogen
[12] = cured epoxy resin, Horwitz-Metzger equation
[13] = LLNA, ref Niklasson et al., 2009
[14] = AOO 16:1, 10% w/v (0.21 M), precipitating from solution on the ears of the mice

COc1ccccc1OCC1CO1 (centres unmarked) [Compound 1, 2-((2-methoxyphenoxy)methyl)oxirane]
ECKS1.5 [1]: 23 µM | ECKS4.5 [1]: 64 µM

O=[N+]([O-])c1ccccc1OCC1CO1 (centres unmarked) [Compound 2, 2-((2-nitrophenoxy)methyl)oxirane]
peptide remaining (model peptide AcPHCKRM; after 40 min, pH 7.4): 28% | peptide remaining (model peptide AcPHCKRM; at 200 min, pH 7.4): 24% | Classification [1]: Sensitizer | ECKS1.5 [1]: 12 µM | ECKS4.5 [1]: 37 µM | IC50 at 48 h [2]: 88 µM

CC(C)(c1ccc(OCC2CO2)cc1)c1ccc(OCC2CO2)cc1 (centres unmarked) [DGEBA, diglycidyl ether of bisphenol A]
peptide remaining (model peptide AcPHCKRM; [10]): 37% | peptide remaining (model peptide AcPHCKRM; after 85 min, pH 7.4): 18% | peptide remaining (model peptide AcPHCKRM; after 205 min, pH 7.4): 7% | IDT (initial decomposition temperature) [3, 11]: 358 ˚C | Rmax (maximum weight loss rate) [3, 11]: −1.58 %/˚C | Tmax (temperature at maximum rate of weight loss) [3, 11]: 382 ˚C | Ea (activation energy for decomposition) [3, 12]: 96 kJ/mol | ECKS1.5 [4]: 5.2 µM | ECKS4.5 [4]: 10 µM | IC50 [5]: 22 µM | EC3 (CBA/Ca mice [6]; [13]): 0.036 M | Classification as sensitizer (mice and guinea pigs; mice and guinea pigs, ref Thorgeirsson et al., 1978, Delaine et al., 2011, Pontén et al., 2002, Basketter et al., 2005): strong sensitizers

c1cc(OCC2CO2)ccc1Cc1ccc(OCC2CO2)cc1 (centres unmarked) [DGEBF, diglycidyl ether of bisphenol F]
Classification as sensitizer (mice and guinea pigs; in vivo): strong sensitizers

CCCCCCC(C=O)=Cc1ccccc1 [HCA, hexylcinnamic aldehyde, reference compound]
EC3 (CBA/Ca mice [7]; control experiment in AOO 16:1): 11.8 % w/v | EC3 (CBA/Ca mice [6]; reported values in 4:1 AOO, ref OECD, 2010): 4.4–14.7 % w/v

c1ccc(OCC2CO2)cc1 (centres unmarked) [PGE, phenylglycidyl ether]
peptide remaining (model peptide AcPHCKRM; after 40 min, pH 7.4): 35% | peptide remaining (model peptide AcPHCKRM; at 200 min, pH 7.4): 26% | Imax (fold induction) ([4]; average maximal induction of gene activity, ref Delaine et al., 2011): 56 fold induction | ECKS1.5 ([4]; extrapolated concentration for 1.5 fold luciferase induction, ref Delaine et al., 2011): 16 µM | ECKS4.5 ([4]; extrapolated concentration for 4.5 fold luciferase induction, ref Delaine et al., 2011): 63 µM | IC50 [5]: 182 µM | EC3 (CBA/Ca mice [6]; [13]): 0.031 M | LLNA classification (CBA/Ca mice [6]; ref Niklasson et al., 2009): strong sensitizer

COc1cc([C@H]2OC[C@H]3[C@@H]2CO[C@@H]3c2ccc(OCC3CO3)c(OC)c2)ccc1OCC1CO1 (some centres unmarked) [PinoDGE, pinoresinol diglycidyl ether]
peptide remaining (model peptide AcPHCKRM; [10]): 8% | peptide remaining (model peptide AcPHCKRM; after 85 min, pH 7.4): 5% | Classification [1]: skin sensitizer | ECKS1.5 [1]: 2.5 µM | ECKS4.5 [1]: 7.4 µM | IC50 at 48 h [2]: 24 µM | (3H)thymidine incorporation (CBA/Ca mice [7]; AOO 4:1, 0.10% w/v (0.0021 M)): 280 dpm/lymph node | SI (CBA/Ca mice [7]; AOO 4:1, 0.10% w/v (0.0021 M)): 0.94 | (3H)thymidine incorporation (CBA/Ca mice [7]; AOO 4:1, 1.0% w/v (0.021 M)): 368 dpm/lymph node | SI (CBA/Ca mice [7]; AOO 4:1, 1.0% w/v (0.021 M)): 1.23 | (3H)thymidine incorporation (CBA/Ca mice [7]; AOO 4:1, 2.5% w/v (0.053 M)): 166 dpm/lymph node | SI (CBA/Ca mice [7]; AOO 4:1, 2.5% w/v (0.053 M)): 0.56 | (3H)thymidine incorporation (CBA/Ca mice [7]; AOO 4:1, 3.0% w/v (0.064 M)): 325 dpm/lymph node | SI (CBA/Ca mice [7]; AOO 4:1, 3.0% w/v (0.064 M)): 1.09 | (3H)thymidine incorporation (CBA/Ca mice [7]; AOO 4:1, 5.0% w/v (0.11 M)): 327 dpm/lymph node | SI (CBA/Ca mice [7]; AOO 4:1, 5.0% w/v (0.11 M)): 1.10 | (3H)thymidine incorporation (CBA/Ca mice [7]; AOO 16:1, 2.0% w/v (0.043 M)): 130 dpm/lymph node | SI (CBA/Ca mice [7]; AOO 16:1, 2.0% w/v (0.043 M)): 0.52 | (3H)thymidine incorporation (CBA/Ca mice [7]; AOO 16:1, 4.0% w/v (0.085 M)): 180 dpm/lymph node | SI (CBA/Ca mice [7]; AOO 16:1, 4.0% w/v (0.085 M)): 0.73 | (3H)thymidine incorporation (CBA/Ca mice [7]; AOO 16:1, 6.0% w/v ([…])): 195 dpm/lymph node | SI (CBA/Ca mice [7]; AOO 16:1, 6.0% w/v ([…])): 0.79 | (3H)thymidine incorporation (CBA/Ca mice [7]; AOO 16:1, 8.0% w/v (0.17 M)): 480 dpm/lymph node | SI (CBA/Ca mice [7]; AOO 16:1, 8.0% w/v (0.17 M)): 1.94 | (3H)thymidine incorporation (CBA/Ca mice [7]; [14]): 180 dpm/lymph node | SI (CBA/Ca mice [7]; [14]): 0.73 | EC3 (CBA/Ca mice [7]; LLNA, AOO 4:1 and AOO 16:1): > 0.17 M | SI (CBA/Ca mice [7]; any of the concentrations tested, both vehicles): ≤ 3 | LLNA classification (CBA/Ca mice [7]; concentrations up to 0.17 M): not classified as a skin sensitizer | maximum rate of degradation (Rmax) relative to DGEBA ([8]; Rmax as percentage of that of DGEBA): 58% | IDT (initial decomposition temperature) [8, 11]: 338 ˚C | Rmax (maximum weight loss rate) [8, 11]: −0.92 %/˚C | Tmax (temperature at maximum rate of weight loss) [8, 11]: 370 ˚C | Ea (activation energy for decomposition) [8, 12]: 128 kJ/mol | IDT lower than that of DGEBA ([8]; difference to DGEBA polymer): 20 °C | Tmax lower than that of DGEBA ([8]; difference to DGEBA polymer): 12 °C | Solubility in vehicle ([9]; AOO 16:1, precipitated from a 10% w/v solution): up to 8 % w/v | Solubility in vehicle ([9]; AOO (4:1)): ≤ 5 % w/v | solubility ([9]; acetone:olive oil (AOO) 4:1, organic solvent or mixture, AOO (4:1)): ≤ 110 mM | solubility ([9]; acetone:olive oil (AOO) 16:1, organic solvent or mixture, AOO 16:1, precipitated from a 10% w/v solution): ≤ 170 mM
